Measurements: the CheMixHub ionic liquid set

Test: xn = mol fraction of the nth substance listed

CCCCCCCCCCCCCCCC[n+]1ccccc1.O=C([O-])C(O)c1ccccc1 + CC(C)C[C@H](N)C(=O)O + O
electrical conductivity [S/m], 101 kPa
Settings	293.15 K	298.15 K	303.15 K	308.15 K	313.15 K
x1 = 9.1e-07, x2 = 0.001799	0.00171	0.00194	0.00216	0.0024	0.0027
x1 = 1.08e-06, x2 = 0	0.00061	0.00068	0.00076	0.00083	0.0009
x1 = 1.27e-06, x2 = 0.0009002	0.00143	0.0016	0.0018	0.002	0.0022
x1 = 1.98e-06, x2 = 0	0.001	0.0012	0.0013	0.0014	0.0016
x1 = 2.19e-06, x2 = 0.001799	0.00211	0.00239	0.00267	0.003	0.0033
x1 = 2.54e-06, x2 = 0.0009002	0.00187	0.00211	0.00235	0.0026	0.0029
x1 = 2.88e-06, x2 = 0	0.00147	0.0016	0.0018	0.002	0.0022
x1 = 3.1e-06, x2 = 0.001799	0.00244	0.00277	0.00309	0.0034	0.0038
x1 = 3.44e-06, x2 = 0.0009002	0.0022	0.00251	0.00278	0.0031	0.0034
x1 = 3.96e-06, x2 = 0	0.0019	0.0022	0.0024	0.0026	0.0029
x1 = 4.19e-06, x2 = 0.001799	0.00279	0.00316	0.00352	0.0039	0.0043
x1 = 4.69e-06, x2 = 0	0.0023	0.0026	0.0029	0.0031	0.0035
x1 = 4.71e-06, x2 = 0.0009002	0.00261	0.00294	0.00329	0.0036	0.004
x1 = 5.1e-06, x2 = 0.001799	0.00312	0.00353	0.00394	0.0044	0.0048
x1 = 5.95e-06, x2 = 0	0.00281	0.0032	0.0035	0.0038	0.0042
x1 = 5.98e-06, x2 = 0.0009002	0.00307	0.00345	0.00384	0.0043	0.0047
x1 = 6.74e-06, x2 = 0.001799	0.00363	0.0041	0.00457	0.0051	0.0056
x1 = 7.21e-06, x2 = 0	0.00341	0.0038	0.0042	0.0046	0.0051
x1 = 7.43e-06, x2 = 0.0009002	0.00352	0.00397	0.00441	0.0049	0.0054
x1 = 8.2e-06, x2 = 0.001799	0.00408	0.00463	0.00516	0.0057	0.0064
x1 = 8.7e-06, x2 = 0.0009002	0.00394	0.00445	0.00497	0.0055	0.0061
x1 = 8.83e-06, x2 = 0	0.00406	0.0046	0.005	0.0055	0.006
x1 = 9.84e-06, x2 = 0.001799	0.00451	0.00511	0.00572	0.0064	0.0071
x1 = 1.045e-05, x2 = 0	0.00469	0.0053	0.0058	0.0065	0.0071
x1 = 1.051e-05, x2 = 0.0009002	0.00444	0.00501	0.0056	0.0062	0.0069
x1 = 1.13e-05, x2 = 0.001799	0.00486	0.00551	0.00618	0.0069	0.0077
x1 = 1.196e-05, x2 = 0.0009002	0.00475	0.00538	0.006	0.0067	0.0075
x1 = 1.207e-05, x2 = 0	0.00516	0.0058	0.0064	0.0071	0.0079
x1 = 1.294e-05, x2 = 0.001799	0.00522	0.00591	0.00661	0.0074	0.0082
x1 = 1.323e-05, x2 = 0.0009002	0.00506	0.00573	0.0064	0.0071	0.0079
x1 = 1.351e-05, x2 = 0	0.00562	0.00631	0.007	0.0077	0.0085
x1 = 1.44e-05, x2 = 0.001799	0.00556	0.00629	0.00704	0.0079	0.0088
x1 = 1.468e-05, x2 = 0.0009002	0.00539	0.00609	0.0068	0.0076	0.0084
x1 = 1.478e-05, x2 = 0	0.00603	0.0068	0.0075	0.0083	0.0092
x1 = 1.585e-05, x2 = 0.001799	0.00586	0.00664	0.00743	0.0083	0.0092
x1 = 1.595e-05, x2 = 0.0009002	0.00568	0.00642	0.0072	0.008	0.0089
x1 = 1.622e-05, x2 = 0	0.00644	0.0072	0.008	0.0089	0.0098
x1 = 1.722e-05, x2 = 0.0009002	0.00598	0.00676	0.0075	0.0084	0.0093
x1 = 1.731e-05, x2 = 0.001799	0.00617	0.00698	0.00783	0.0087	0.0097
x1 = 1.766e-05, x2 = 0	0.00687	0.0077	0.0085	0.0094	0.0104

COP(=O)([O-])OC.Cn1cc[n+](C)c1 + CO
Settings	viscosity [mPa·s]
293.15 K, 101 kPa, x2 = 0.6018	20.02
293.15 K, 101 kPa, x2 = 0.8998	1.927
298.15 K, 101 kPa, x2 = 0	291
298.15 K, 101 kPa, x2 = 0.2977	86.2
298.15 K, 101 kPa, x2 = 0.3984	54.2
303.15 K, 101 kPa, x2 = 0.2009	95.3
303.15 K, 101 kPa, x2 = 0.5028	24.98
308.15 K, 101 kPa, x2 = 0.5028	21.1
308.15 K, 101.33 kPa, x2 = 0	139.5
318.15 K, 101 kPa, x2 = 0.1054	71.5
318.15 K, 101 kPa, x2 = 0.7027	5.83
323.15 K, 101 kPa, x2 = 0.2977	31.01
323.15 K, 101 kPa, x2 = 0.5028	13.63
